Experimental data from patent US20100298141A1, “SUBSTITUTED PYRIDINE N-OXIDE HERBICIDES” (E. I. DU PONT DE NEMOURS AND COMPANY, priority 2007, published 2010).

How the values were obtained:
barnyardgrass = assay: Test A pre-/postemergence greenhouse test; type: in vivo, Echinochloa crus-galli; conditions: for Barnyardgrass plant response rating: 0 to 100 scale
In short: (§1)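 Pots of loam–sand soil sown with the test species are sprayed preemergence on the soil surface; emerged seedlings (1–2 leaves, 2–10 cm) are sprayed postemergence at the same time. The vehicle is a non-phytotoxic solvent mixture with surfactant. Injury is scored visually after ~10 d in greenhouse.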

morningglory [1] = assay: Test A pre-/postemergence greenhouse test; type: in vivo, Ipomoea spp.; conditions: for Morningglory plant response rating: 0 to 100 scale
In short: as §1

blackgrass = assay: Test C pre-/postemergence test; type: in vivo, Alopecurus myosuroides; conditions: for Plant response rating, Blackgrass: scale 0 to 100, 0 no effect, 100 complete control
In short: (§2)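 Compounds in a non-phytotoxic solvent with surfactant applied preemergence to seeded pots and, at the same time, postemergence to plants 2–18 cm tall (1- to 4-leaf stage). Paddy tests: pots flooded to 3 cm, compound applied into the water, depth held throughout.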

green foxtail = assay: Test C pre-/postemergence test; type: in vivo, Setaria viridis; conditions: for Plant response rating, Foxtail, Green: scale 0 to 100, 0 no effect, 100 complete control
In short: as §2

Italian ryegrass = assay: Test C pre-/postemergence test; type: in vivo, Lolium multiflorum; conditions: for Plant response rating, Ryegrass, Italian: scale 0 to 100, 0 no effect, 100 complete control
In short: as §2

wheat = assay: Test C pre-/postemergence test; type: in vivo, Triticum aestivum; conditions: for Wheat plant response rating: preemergence, scale 0 (no effect) to 100 (complete control); for Plant response rating, Wheat: scale 0 to 100, 0 no effect, 100 complete control
In short: as §2

cocklebur = assay: Test C pre-/postemergence test; type: in vivo, Xanthium strumarium; conditions: for Plant response rating, Cocklebur: scale 0 to 100, 0 no effect, 100 complete control
In short: as §2

corn = assay: Test C pre-/postemergence test; type: in vivo, Zea mays; conditions: for Plant response rating, Corn: scale 0 to 100, 0 no effect, 100 complete control
In short: as §2

crabgrass = assay: Test C pre-/postemergence test; type: in vivo, Digitaria sanguinalis; conditions: for Plant response rating, Crabgrass, Large: scale 0 to 100, 0 no effect, 100 complete control
In short: as §2

woolly cupgrass = assay: Test C pre-/postemergence test; type: in vivo, Eriochloa villosa; conditions: for Plant response rating, Cupgrass, Woolly: scale 0 to 100, 0 no effect, 100 complete control
In short: as §2

kochia = assay: Test C pre-/postemergence test; type: in vivo, Kochia scoparia; conditions: for Plant response rating, Kochia: scale 0 to 100, 0 no effect, 100 complete control
From the text: (§3) Seeds of plant species selected from blackgrass (Alopecurus myosuroides), downy brome (Bromus tectorum), green foxtail (Setaria viridis), Italian ryegrass (Lolium multiflorum), wheat (Triticum aestivum), wild oat (Avena fatua), catchweed bedstraw (Galium aparine), Russian thistle (Salsola kali), […] (Cynodon dactylon), Surinam grass (Brachiaria decumbens), cocklebur (Xanthium strumarium), corn (Zea mays), crabgrass (Digitaria sanguinalis), woolly cupgrass (Eriochloa villosa), giant foxtail (Setaria faberii), Goosegrass (Eleusin indica), johnsongrass (Sorghum halepense), kochia (Kochia scoparia), lambsquarters (Chenopodium album), morningglory (Ipomoea coccinea), eastern black nightshade (Solanum ptycanthum), yellow nutsedge (Cyperus esculentus), pigweed (Amaranthus retroflexus), common ragweed (Ambrosia elation), soybean (Glycine max), common (oilseed) sunflower (Helianthus annuus), and velvetleaf (Abutilon theophrasti) were planted and treated preemergence with test chemicals formulated in a non-phytotoxic solvent mixture which included a surfactant. At the same time, plants selected from these crop and weed species and also winter barley (Hordeum vulgare), canarygrass (Phalaris minor), and chickweed (Stellaria media) were treated with postemergence applications of some of the test chemicals formulated in the same manner. Plants ranged in height from 2 to 18 cm (1- to 4-leaf stage) for postemergence treatments. […] At time of treatment, test pots were flooded to 3 cm above the soil surface, treated by application of test compounds directly to the paddy water, and then maintained at that water depth for the duration of the test. […] A dash (-) response means no test result.

morningglory [2] = assay: Test C pre-/postemergence test; type: in vivo, Ipomoea coccinea; conditions: for Plant response rating, Morningglory: scale 0 to 100, 0 no effect, 100 complete control
In short: as §2

yellow nutsedge = assay: Test C pre-/postemergence test; type: in vivo, Cyperus esculentus; conditions: for Plant response rating, Nutsedge, Yellow: scale 0 to 100, 0 no effect, 100 complete control
In short: as §2

pigweed = assay: Test C pre-/postemergence test; type: in vivo, Amaranthus retroflexus; conditions: for Plant response rating, Pigweed: scale 0 to 100, 0 no effect, 100 complete control
In short: as §2

soybean = assay: Test C pre-/postemergence test; type: in vivo, Glycine max; conditions: for Soybean plant response rating: preemergence, scale 0 (no effect) to 100 (complete control); for Plant response rating, Soybean: scale 0 to 100, 0 no effect, 100 complete control
In short: as §2

[3] = test system: common (oilseed) sunflower; assay: Test C pre-/postemergence test; type: in vivo, Helianthus annuus; conditions: for Sunflower plant response rating: preemergence, scale 0 (no effect) to 100 (complete control)
From the text: as §3

[4] = Postemergence, 125 g ai/ha, 0 is no effect, 100 is complete control
[5] = Postemergence, 500 g ai/ha, 0 is no effect, 100 is complete control
[6] = Preemergence, 125 g ai/ha, 0 no effect, 100 complete control
[7] = Preemergence, 500 g ai/ha, 0 to 100 scale where 0 is no effect and 100 is complete control
[8] = 31 g ai/ha, Preemergence, scale 0 to 100
[9] = 62 g ai/ha, preemergence, scale 0 (no effect) to 100 (complete control)
[10] = preemergence, 125 g ai/ha, scale 0 (no effect) to 100 (complete control)

## Cc1cc[n+]([O-])c([S+]([O-])Cc2c(C(F)(F)F)nn(C)c2OC(F)F)c1 (centres unmarked) [Compound 1]
barnyardgrass; [4]
  Barnyardgrass plant response rating: 80
barnyardgrass; [5]
  Barnyardgrass plant response rating: 80
barnyardgrass; [6]
  Barnyardgrass plant response rating: 90
barnyardgrass; [7]
  Plant response rating, Barnyardgrass: 100
Morningglory [1]; [4]
  Morningglory plant response rating: 70
Morningglory [1]; [5]
  Morningglory plant response rating: 90
Morningglory [1]; [6]
  Morningglory plant response rating: 70
Morningglory [1]; [7]
  Plant response rating, Morningglory: 80
blackgrass; [8]
  Blackgrass plant response rating: 70
blackgrass; [9]
  Blackgrass plant response rating: 100
blackgrass; Postemergence, 31 g ai/ha
  Plant response rating (0 to 100), Blackgrass: 0
blackgrass; Postemergence, 62 g ai/ha
  Plant response rating, Blackgrass: 0
blackgrass; Postemergence, 125 g ai/ha
  Plant response rating, Blackgrass: 0
blackgrass; Postemergence, 250 g ai/ha
  Plant response rating, Blackgrass: 0
blackgrass; Preemergence, 250 g ai/ha
  Plant response rating (0 to 100), Blackgrass: 100
blackgrass; [10]
  Blackgrass plant response rating: 100
Green foxtail; [8]
  Foxtail, Green plant response rating: 100
Green foxtail; [9]
  Foxtail, Green plant response rating: 100
Green foxtail; Postemergence, 31 g ai/ha
  Plant response rating (0 to 100), Foxtail, Green: 0
Green foxtail; Postemergence, 62 g ai/ha
  Plant response rating, Foxtail, Green: 0
Green foxtail; Postemergence, 125 g ai/ha
  Plant response rating, Foxtail, Green: 30
Green foxtail; Postemergence, 250 g ai/ha
  Plant response rating, Foxtail, Green: 60
Green foxtail; Preemergence, 250 g ai/ha
  Plant response rating (0 to 100), Foxtail, Green: 100
Green foxtail; [10]
  Foxtail, Green plant response rating: 100
Italian ryegrass; [8]
  Ryegrass, Italian plant response rating: 60
Italian ryegrass; [9]
  Ryegrass, Italian plant response rating: 100
Italian ryegrass; Postemergence, 31 g ai/ha
  Plant response rating (0 to 100), Ryegrass, Italian: 0
Italian ryegrass; Postemergence, 62 g ai/ha
  Plant response rating (0 to 100), Ryegrass, Italian: 0
Italian ryegrass; Postemergence, 125 g ai/ha
  Plant response rating, Ryegrass, Italian: 0
Italian ryegrass; Postemergence, 250 g ai/ha
  Plant response rating, Ryegrass, Italian: 30
Italian ryegrass; Preemergence, 250 g ai/ha
  Plant response rating (0 to 100), Ryegrass, Italian: 100
Italian ryegrass; [10]
  Ryegrass, Italian plant response rating: 100
wheat; 62 g ai/ha
  Wheat plant response rating: 30
wheat; Postemergence, 31 g ai/ha
  Plant response rating (0 to 100), Wheat: 0
wheat; Postemergence, 62 g ai/ha
  Plant response rating (0 to 100), Wheat: 0
wheat; Postemergence, 125 g ai/ha
  Plant response rating, Wheat: 0
wheat; Postemergence, 250 g ai/ha
  Plant response rating, Wheat: 0
wheat; Preemergence, 250 g ai/ha
  Plant response rating (0 to 100), Wheat: 95
wheat; 125 g ai/ha
  Wheat plant response rating: 60
cocklebur; [8]
  Cocklebur plant response rating: 0
cocklebur; [9]
  Cocklebur plant response rating: 0
cocklebur; Postemergence, 31 g ai/ha
  Plant response rating (0 to 100), Cocklebur: 0
cocklebur; Postemergence, 62 g ai/ha
  Plant response rating, Cocklebur: 0
cocklebur; Postemergence, 125 g ai/ha
  Plant response rating, Cocklebur: 0
cocklebur; Postemergence, 250 g ai/ha
  Plant response rating, Cocklebur: 0
cocklebur; Preemergence, 250 g ai/ha
  Plant response rating (0 to 100), Cocklebur: 60
cocklebur; [10]
  Cocklebur plant response rating: 0
corn; [8]
  Corn plant response rating: 50
corn; [9]
  Corn plant response rating: 60
corn; Postemergence, 31 g ai/ha
  Plant response rating (0 to 100), Corn: 0
corn; Postemergence, 62 g ai/ha
  Plant response rating, Corn: 0
corn; Postemergence, 125 g ai/ha
  Plant response rating, Corn: 0
corn; Postemergence, 250 g ai/ha
  Plant response rating, Corn: 5
corn; Preemergence, 250 g ai/ha
  Plant response rating (0 to 100), Corn: 98
corn; [10]
  Corn plant response rating: 95
crabgrass; [8]
  Crabgrass, Large plant response rating: 0
crabgrass; [9]
  Crabgrass, Large plant response rating: 80
crabgrass; Postemergence, 31 g ai/ha
  Plant response rating (0 to 100), Crabgrass, Large: 10
crabgrass; Postemergence, 62 g ai/ha
  Plant response rating, Crabgrass, Large: 30
crabgrass; Postemergence, 125 g ai/ha
  Plant response rating, Crabgrass, Large: 50
crabgrass; Postemergence, 250 g ai/ha
  Plant response rating, Crabgrass, Large: 70
crabgrass; Preemergence, 250 g ai/ha
  Plant response rating (0 to 100), Crabgrass, Large: 100
crabgrass; [10]
  Crabgrass, Large plant response rating: 100
Woolly cupgrass; [8]
  Cupgrass, Woolly plant response rating: 40
Woolly cupgrass; [9]
  Cupgrass, Woolly plant response rating: 60
Woolly cupgrass; Postemergence, 31 g ai/ha
  Plant response rating (0 to 100), Cupgrass, Woolly: 0
Woolly cupgrass; Postemergence, 62 g ai/ha
  Plant response rating, Cupgrass, Woolly: 0
Woolly cupgrass; Postemergence, 125 g ai/ha
  Plant response rating, Cupgrass, Woolly: 40
Woolly cupgrass; Postemergence, 250 g ai/ha
  Plant response rating, Cupgrass, Woolly: 70
Woolly cupgrass; Preemergence, 250 g ai/ha
  Plant response rating (0 to 100), Cupgrass, Woolly: 90
Woolly cupgrass; [10]
  Cupgrass, Woolly plant response rating: 90
kochia; [8]
  Kochia plant response rating: 100
kochia; [9]
  Kochia plant response rating: 100
kochia; Postemergence, 31 g ai/ha
  Plant response rating (0 to 100), Kochia: 0
kochia; Postemergence, 62 g ai/ha
  Plant response rating, Kochia: 0
kochia; Postemergence, 125 g ai/ha
  Plant response rating, Kochia: 10
kochia; Postemergence, 250 g ai/ha
  Plant response rating, Kochia: 40
kochia; Preemergence, 250 g ai/ha
  Plant response rating (0 to 100), Kochia: 100
kochia; [10]
  Kochia plant response rating: 100
Morningglory [2]; [8]
  Morningglory plant response rating: 85
Morningglory [2]; [9]
  Morningglory plant response rating: 100
Morningglory [2]; Postemergence, 31 g ai/ha
  Plant response rating (0 to 100), Morningglory: 40
Morningglory [2]; Postemergence, 62 g ai/ha
  Plant response rating, Morningglory: 40
Morningglory [2]; Postemergence, 125 g ai/ha
  Plant response rating, Morningglory: 45
Morningglory [2]; Postemergence, 250 g ai/ha
  Plant response rating, Morningglory: 75
Morningglory [2]; Preemergence, 250 g ai/ha
  Plant response rating (0 to 100), Morningglory: 100
Morningglory [2]; [10]
  Morningglory plant response rating: 100
Yellow nutsedge; [8]
  Nutsedge, Yellow plant response rating: 0
Yellow nutsedge; [9]
  Nutsedge, Yellow plant response rating: 95
Yellow nutsedge; Postemergence, 31 g ai/ha
  Plant response rating (0 to 100), Nutsedge, Yellow: 0
Yellow nutsedge; Postemergence, 62 g ai/ha
  Plant response rating, Nutsedge, Yellow: 0
Yellow nutsedge; Postemergence, 125 g ai/ha
  Plant response rating, Nutsedge, Yellow: 0
Yellow nutsedge; Postemergence, 250 g ai/ha
  Plant response rating, Nutsedge, Yellow: 0
Yellow nutsedge; Preemergence, 250 g ai/ha
  Plant response rating (0 to 100), Nutsedge, Yellow: 100
Yellow nutsedge; [10]
  Nutsedge, Yellow plant response rating: 100
pigweed; [8]
  Pigweed plant response rating: 80
pigweed; [9]
  Pigweed plant response rating: 100
pigweed; Postemergence, 31 g ai/ha
  Plant response rating (0 to 100), Pigweed: 0
pigweed; Postemergence, 62 g ai/ha
  Plant response rating (0 to 100), Pigweed: 0
pigweed; Postemergence, 125 g ai/ha
  Plant response rating, Pigweed: 0
pigweed; Postemergence, 250 g ai/ha
  Plant response rating, Pigweed: 10
pigweed; Preemergence, 250 g ai/ha
  Plant response rating (0 to 100), Pigweed: 100
pigweed; [10]
  Pigweed plant response rating: 100
soybean; 62 g ai/ha
  Soybean plant response rating: 100
soybean; Postemergence, 31 g ai/ha
  Plant response rating (0 to 100), Soybean: 60
soybean; Postemergence, 62 g ai/ha
  Plant response rating (0 to 100), Soybean: 85
soybean; Postemergence, 125 g ai/ha
  Plant response rating, Soybean: 85
soybean; Postemergence, 250 g ai/ha
  Plant response rating, Soybean: 90
soybean; Preemergence, 250 g ai/ha
  Plant response rating (0 to 100), Soybean: 100
soybean; 125 g ai/ha
  Soybean plant response rating: 100
[3]; 62 g ai/ha
  Sunflower plant response rating: 5
[3]; Preemergence, 250 g ai/ha
  Plant response rating (0 to 100), Sunflower: 75
[3]; 125 g ai/ha
  Sunflower plant response rating: 25
